Some test systems named below: CCRF-CEM leukemia; K-562 leukemia; NCI-H23 lung; NCI-H460 lung; OVCAR-3 ovarian; OVCAR-4 ovarian; OVCAR-5 ovarian; OVCAR-8 ovarian; RPMI-8226 leukemia; SW-620 colon; U251 CNS; UACC-62 melanoma; DMS 273 small cell lung.
Common to all, as to experiment: NCI anticancer screen, dose series, 48 h

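How tested: cells in 96-well plates exposed to compound for 48 hours at five concentrations. At the GI50, growth is halved. TGI marks complete inhibition of growth.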

As for `CCOC(=O)/C(=N/Nc1ccccc1)N1C(=S)C=C(C)NN(C)C1=S`, the TGI in the assay on CCRF-CEM leukemia, in the assay with K-562 leukemia, with NCI-H23 lung, in the assay with NCI-H460 lung, in the assay on OVCAR-3 ovarian and in the assay on OVCAR-4 ovarian was > 100 µM each time. Also, the TGI in the assay on OVCAR-5 ovarian is > 100 µM; in the assay with OVCAR-8 ovarian it was > 100 µM; in the assay with RPMI-8226 leukemia, > 100 µM; with SW-620 colon, > 100 µM; in the assay with U251 CNS, 50.9 µM; in the assay on UACC-62 melanoma, > 100 µM.

As to `C/C(=N\NC(=O)c1ccccc1O)c1cccc(/C(C)=N/NC(=O)c2ccccc2O)n1.O=S(=O)([O-])[O-].[Fe+2]`, the GI50 was 1.42 µM in the assay on CCRF-CEM leukemia; 46.4 µM in the assay on DMS 273 small cell lung; > 100 µM with NCI-H23 lung; > 100 µM in the assay with OVCAR-3 ovarian; > 100 µM in the assay with OVCAR-4 ovarian; > 100 µM in the assay with OVCAR-5 ovarian. In addition, the GI50 with U251 CNS is 59.1 µM. The TGI with CCRF-CEM leukemia is 5.74 µM; with DMS 273 small cell lung it was > 100 µM; in the assay with K-562 leukemia, > 100 µM; in the assay with NCI-H23 lung, > 100 µM; in the assay with NCI-H460 lung, > 100 µM; in the assay with OVCAR-3 ovarian, > 100 µM. The TGI with OVCAR-4 ovarian, with OVCAR-5 ovarian, with OVCAR-8 ovarian, in the assay on SW-620 colon, in the assay on U251 CNS and in the assay with UACC-62 melanoma was > 100 µM in each case.

For the origin of these results see PubChem BioAssay (NCI).
